{
  "source": "patent US20170191058A1",
  "about": "“PERFORIN 2 DEFENSE AGAINST INVASIVE AND MULTIDRUG RESISTANT PATHOGENS” (priority 2012, published 2017)",
  "key": {"P-2": {"tested_on": "P-2", "test": "P-2 expression in macrophages, BMDM/DC and microglia after LPS and IFN-γ", "format": "cell-based, murine", "settings": "LPS and IFN-γ given together, microglia", "experimental": "BMDM/DC were differentiated from murine bone marrow for 10 days in the presence GM-CSF and then stimulated with (FIG. 9A) LPS ([…]) and IFNγ (100 U/ml) or (FIG. 9B) poly(I:C) (3 mg/ml) for 48 hr. (FIG. 9C) BV2 microglial cells were stimulated for 24 hr with IFNγ (100 U/ml). (FIG. 9D) RAW cells were stimulated for 24 hr with LPS (Ing/ml) and IFNγ (100 U/ml). Cells were harvested at the indicated time points and analyzed for P-2 message expression by TAQMAN™ RT-PCR, relative to GAPDH.\nRNA was extracted from cells according to RNeasy (Qiagen) instructions. 1 μg of RNA was converted to cDNA using QuantiTect Reverse Transcription Kit (Qiagen) RT-PCR was performed using TAQMAN® Gene Expression Assays (Applied Biosystems) for murine Mpeg-1 and GAPDH, as a housekeeping control gene. All assays were performed on Applied Biosystems 7300 PCR platform."}, "M. smegmatis": {"tested_on": "M. smegmatis", "test": "Gentamycin protection assay: M. smegmatis in IFN-preinduced mEF", "format": "cell-based, Mycobacterium smegmatis", "settings": "uninduced mEF delayed by about 16 h", "experimental": "Murine embryonic fibroblasts (FIG. 14A), a rectal cancer cell line (FIG. 14B), myoblast cell line (FIG. 14C), and an ovarian cell line (FIG. 14D) were treated for 14 hours with 100 U/ml interferon-α, interferon-β, and interferon-γ treated. LPS was treated at 1 ng/ml; IL-1α at 10 U/ml, IL-1β at 1 ng/ml, and TNFα at 20 ng/mL. A human embryonic kidney cell line (FIG. 14E) and cervical cancer cell line (FIG. 14F) were treated with human IFN-α at 150 U/ml, IFN-β and IFN-γ at 100 U/ml. The BV2 microglial cell line was stimulated with 100 U/ml of murine Interferon-γ for 14 hours to upregulate P-2 mRNA and protein. mEF treated with IFN-γ for 14 hours (mEF), or IFN-γ for 14 hours followed by 1 hour of treatment with […] MG-132 (mEF+MG132) (FIG. 14G). Human primary keratinocytes were analyzed for protein expression with indicated recombinant human IFN treatment (FIG. 14H). mEF were treated with E. coli or M. smegmatis. At indicated time points, cells were harvested and analyzed for P-2 mRNA and compared to uninfected controls by TAQMAN™ PCR. (FIG. 14I) mEF were either not stimulated, or stimulated for 14 hours with IFN-γ at 100 U/ml. After stimulation, mEF were infected with M. smegmatis and analyzed for colony forming units at indicated time points. […]"}, "P-2 mRNA": {"tested_on": "P-2 mRNA", "test": "P-2 mRNA expression in mEF by TAQMAN PCR after cytokine treatment", "format": "cell-based, murine", "settings": "added singly, 14 hours", "experimental": "Murine embryonic fibroblasts (FIG. 14A), a rectal cancer cell line (FIG. 14B), myoblast cell line (FIG. 14C), and an ovarian cell line (FIG. 14D) were treated for 14 hours with 100 U/ml interferon-α, interferon-β, and interferon-γ treated. LPS was treated at 1 ng/ml; IL-1α at 10 U/ml, IL-1β at 1 ng/ml, and TNFα at 20 ng/mL. A human embryonic kidney cell line (FIG. 14E) and cervical cancer cell line (FIG. 14F) were treated with human IFN-α at 150 U/ml, IFN-β and IFN-γ at 100 U/ml. The BV2 microglial cell line was stimulated with 100 U/ml of murine Interferon-γ for 14 hours to upregulate P-2 mRNA and protein. mEF treated with IFN-γ for 14 hours (mEF), or IFN-γ for 14 hours followed by 1 hour of treatment with […] MG-132 (mEF+MG132) (FIG. 14G). Human primary keratinocytes were analyzed for protein expression with indicated recombinant human IFN treatment (FIG. 14H). mEF were treated with E. coli or M. smegmatis. At indicated time points, cells were harvested and analyzed for P-2 mRNA and compared to uninfected controls by TAQMAN™ PCR. (FIG. 14I) mEF were either not stimulated, or stimulated for 14 hours with IFN-γ at 100 U/ml. After stimulation, mEF were infected with M. smegmatis and analyzed for colony forming units at indicated time points.\nRecombinant murine IL-1α, IL-1β, TNFα, IFN-γ, IFN-α, IFN-β recombinant human IFN-γ, IFN-β were purchased from preprotech. Recombant human IFN-α was purchased from R&D systems. Murine […] was supplemented at 10 U/mL where indicated. Murine IL-1β was supplemented at 1 ng/ml. Murine TNFα was supplemented at 20 ng/ml. Murine IFN-α, IFN-β and IFN-γ was supplemented with 100 U/ml. Human IFN-α was supplemented where indicated in at a concentration of 150 U/ml where indicated. Human IFN-β and IFN-γ was supplemented at a concentration of 100 U/ml. LPS was added at a concentration of 1 ng/ml.\nRNA was extracted from cells following RNeasy (Qiagen) instructions. One μg of RNA was converted to cDNA using QuantiTect Reverse Transcription kit (Qiagen) following supplier's protocol. qRT-PCR was performed using TAQMAN® Gene Expression Assays (Applied Biosystems) for murine Mpeg1 and GAPDH, with the later serving as a housekeeping control gene. For human tissues, human Mpeg1 and GapDH probes were utilized. All assays were performed on the Applied Biosystems 7300 PCR platform."}},
  "data": [
    {"substance": "IFNγ", "values": [
      {"measurement": "P-2 mRNA and protein expression", "setting": "P-2", "result": "upregulate P-2 mRNA and protein expression"},
      {"measurement": "time to kill intracellular M. smegmatis", "setting": "M. smegmatis", "result": "1 to 5", "unit": "h"},
      {"measurement": "P-2 mRNA induction in mEF", "setting": "P-2 mRNA", "result": "up-regulates P-2 mRNA"}
    ]}
  ]
}
